Measurements reported in patent US4306069A, “Encainide N-oxide” (priority 1980, dated 1981).
In brackets after ≈: the same amount, converted by molar mass. Entries after “also recorded” stand apart in the source; their conditions may differ. Counter-ions that a name gives are not always drawn.

Assays:
Water solubility = type: physicochemical
dog = assay: Dog I.V.: anesthetized dog, effects on blood pressure, respiration and paw temperature; type: in vivo; details: for Toxicity, Dog I.V., effect at 1 mg/kg: first dose 1 mg/kg, blood pressure, respiration, paw temperature
Experimental: ^(2) Anesthesized dog treated first with a 1 mg/kg dose and then with
a 10 mg/kg dose; effects on blood pressure, respiration, and paw
temperature are observed.

[1] = Toxicity, oral doses in mice (ALD50, ATD50); type: in vivo; details: in vivo, mouse, oral, 5 mg/kg to 2000 mg/kg, 2 mice each dose; for LD50: read-out: ALD50 (approximate lethal dose for half the animals); for TD50: read-out: ATD50 (approximate lowest dose where signs of physiologic or neurologic deficit appear)
Experimental: (§1) ^(1) Various oral doses of from 5 mg/kg to 2000 mg/kg are given to 2
(§2) mice each; ALD50 is the approximate lethal dose for half the animals
(§3) ATD50 is the approximate lowest dose where signs of physiologic or
(§4) neurologic deficit appear.

[2] = system: ventricular arrhythmia produced by chloroform inhalation; assay: Antiarrhythmic activity, ventricular arrhythmia produced in mice by chloroform inhalation; type: in vivo; details: 10 animals per dose
Text: ^(4) Ventricular arrhythmia produced in mice by chloroform inhalation
10 animals per dose (Lawson, J. W., J. Pharmacol. Exp. Therap. 160, 22

mice = assay: Toxicity, oral doses in mice (ALD50, ATD50); type: in vivo; details: compared with encainide and its hydrochloride salt
Experimental: as §1, §2, §3, §4

[3] = system: ouabain induced ventricular tachycardia; assay: Antiarrhythmic activity, ouabain induced ventricular tachycardia in the dog; type: in vivo; details: compared with quinidine and encainide
Text: The present substance is an improved antiarrhythmic agent.
^(3) Anesthetized open chest dog, ouabain induced (Byrne, J.E., et al

For `COc1ccc(C(=O)Nc2ccccc2CCC2CCCCN2C)cc1` (centres unmarked) [hydrochloride salt], the “Water solubility, in words” value (Water solubility) was “higher water solubility relative to the base” and the Water solubility (Water solubility; water) was 205 mg/mL.

In the case of `COc1ccc(C(=O)Nc2ccccc2CCC2CCCCN2C)cc1` (centres unmarked) [Encainide], the “Water solubility, in words” value (Water solubility) is reported as “rather low water solubility”, the Water solubility (Water solubility; water) is reported as 46.3 mg/mL and the “Toxicity, Dog I.V., effect at 10 mg/kg” value (dog; 10 mg/kg after 1 mg/kg) is reported as “lethal”. For the same compound, the “Toxicity, Dog I.V., effect at 1 mg/kg” value (dog) was “no effect”, the LD50 [1] was 50 to 100 mg/kg and the TD50 [1] was 5 to 10 mg/kg. The ED50 ([2]; ip, mouse, I.P.) was 7.1 to 15 mg/kg.

For `COc1ccc(C(=O)Nc2ccccc2CCC2CCCC[N+]2(C)[O-])cc1` (racemic) [Encainide N-Oxide, 4-Methoxy-N-[2-[2-(1-methyl-2-piperidyl)ethyl]phenyl]-benzamide N-oxide], the “Water solubility, in words” value (Water solubility) was “increased water solubility; also recorded: highly water soluble”, the solubility (Water solubility; water) was 833 mg/mL (≈ 2260 mM) and the “Toxicity, Dog I.V., effect at 1 mg/kg” value (dog) was “no effect”. For the same compound, the “Toxicity relative to encainide, in words” value (mice) was “substantially reduced toxicity”, the LD50 [1] was 500 to 1000 mg/kg and the TD50 [1] was 62.5 to 125 mg/kg. The “Antiarrhythmic activity in ouabain induced ventricular tachycardia, in words” value [3] was “comparable to quinidine in activity, but somewhat less active than encainide” and the “Antiarrhythmic Activity, Mouse, I.P., activity at 31.3 mg/kg” value ([2]; 31.3 mg/kg) was “inactive”.
